Assay results as given in publication PMC7614683, “A small molecule PI3Kα activator for cardioprotection and neuroregeneration” (Nature, 2023).
Like-named read-outs stand apart in the source and are kept apart here.

What was measured:
Assay in all cases: SelectScreen Adapta
Type in all cases: biochemical
CAMK1 (CaMK1) = CAMK1 (CaMK1) (Homo sapiens, UniProt Q14012); conditions: 1000 nM, [ATP] 10 μM
Protocol: (§1) 133 protein kinases and 7 lipid kinases were counterscreened, with 1938 used at 1 μM, using the Adapta, Lantha and Z-LYTE assays (SelectScreen Kinase Profiling Service; Thermofisher – experimental details of these assays can be found here: https://www.thermofisher.com/uk/en/home/industrial/pharma-biopharma/drug-discovery-development/target-and-lead-identification-and-validation/kinasebiology/kinase-activity-assays.html. The tree represention in KinMap[59] generated courtesy of Cell Signaling Technology, Inc. (www.cellsignal.com). mTORC1 (mTOR/RAPTOR/LST8) protein complex and ATM kinase and substrates were produced as previously described[57],[60]. Screening of 1938 was conducted using SuperSep Phos-Tag 50 μmol/l 100 x 100 x 6.6 mm 17-well (192-18001/199-18011) gels. For ATM assays, 100 nM ATM was incubated for 30 min at 30°C with 5 μM GST-p53 and 1 mM ATP, in the absence or presence of 200 μM 1938 in ATM Kinase Buffer (50 mM HEPES pH 7.5, 100 mM NaCl, 10% glycerol, 2 mM […], 5 mM MgCl2). As a positive control for ATM activation, the same reaction was carried out with 100 nM ATM/5 μM GST-p53/1 mM ATP in the presence of 100 nM Mre11-Rad50-Nbs1 (MRN) complex, a known activator of ATM[61]. For mTORC1 assays, 50 nM mTORC1 complex (mTOR/LST8/RAPTOR) was incubated for 3 h at 30°C with 15 μM 4E-BP1, 10 mM MgCl2 and 250 μM ATP, in the absence or presence of 200 μM 1938. As a ‘positive’ control, a higher concentration (150 nM) of mTORC1 complex (mTOR/LST8/RAPTOR) was incubated for 3 h at 30°C with 15 μM 4E-BP1, 10 mM MgCl2 and 250 μM ATP. Kinase reactions were quenched by addition of SDS-PAGE Loading Buffer (as per manufacturer’s instructions) and freezing at -20°C before being run on the Phos-tag gels at 150 V for 90 min. Gels were then stained using InstantBlue™ Coomassie, and quantified using BioRad Image Lab Software. Kinase assays were carried out in triplicate.

CDK7/cyclin H/MNAT1 = CDK7/cyclin H/MNAT1 (Homo sapiens, UniProt P50613)
Chain of CDK7/cyclin H/MNAT1 (P50613 whole entry): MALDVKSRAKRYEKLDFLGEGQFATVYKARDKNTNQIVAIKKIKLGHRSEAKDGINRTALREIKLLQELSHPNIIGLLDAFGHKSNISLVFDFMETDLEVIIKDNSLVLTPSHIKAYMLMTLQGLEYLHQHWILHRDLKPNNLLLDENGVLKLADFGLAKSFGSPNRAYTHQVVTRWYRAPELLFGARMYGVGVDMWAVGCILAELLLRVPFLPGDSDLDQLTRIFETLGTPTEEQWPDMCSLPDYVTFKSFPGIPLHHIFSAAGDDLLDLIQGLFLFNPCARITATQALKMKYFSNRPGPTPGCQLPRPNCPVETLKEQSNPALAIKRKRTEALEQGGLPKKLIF
Chain of CDK7/cyclin H/MNAT1 (P51946 whole entry partner): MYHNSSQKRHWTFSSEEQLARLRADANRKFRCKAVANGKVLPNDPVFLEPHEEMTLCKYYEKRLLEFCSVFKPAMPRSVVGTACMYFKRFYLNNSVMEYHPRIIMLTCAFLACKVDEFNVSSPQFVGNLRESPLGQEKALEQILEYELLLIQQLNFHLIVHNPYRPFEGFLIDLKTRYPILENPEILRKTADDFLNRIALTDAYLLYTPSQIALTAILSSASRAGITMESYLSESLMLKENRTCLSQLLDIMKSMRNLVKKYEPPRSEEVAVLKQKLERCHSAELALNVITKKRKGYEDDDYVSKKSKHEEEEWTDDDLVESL
Chain of CDK7/cyclin H/MNAT1 (P51948 whole entry partner): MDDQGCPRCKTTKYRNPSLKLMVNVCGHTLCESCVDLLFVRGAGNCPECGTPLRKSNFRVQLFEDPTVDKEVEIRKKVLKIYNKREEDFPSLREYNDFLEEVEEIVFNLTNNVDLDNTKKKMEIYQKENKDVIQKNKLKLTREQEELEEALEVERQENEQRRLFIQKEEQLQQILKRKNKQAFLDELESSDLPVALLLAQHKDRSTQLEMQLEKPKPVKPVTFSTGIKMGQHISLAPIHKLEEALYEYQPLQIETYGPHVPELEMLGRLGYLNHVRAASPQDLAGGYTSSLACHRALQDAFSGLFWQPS
Protocol: as §1

GSG2 (Haspin) = target: T1, GSG2 (Haspin) (Homo sapiens, UniProt Q8TF76)
T1 sequence (Q8TF76 1-798): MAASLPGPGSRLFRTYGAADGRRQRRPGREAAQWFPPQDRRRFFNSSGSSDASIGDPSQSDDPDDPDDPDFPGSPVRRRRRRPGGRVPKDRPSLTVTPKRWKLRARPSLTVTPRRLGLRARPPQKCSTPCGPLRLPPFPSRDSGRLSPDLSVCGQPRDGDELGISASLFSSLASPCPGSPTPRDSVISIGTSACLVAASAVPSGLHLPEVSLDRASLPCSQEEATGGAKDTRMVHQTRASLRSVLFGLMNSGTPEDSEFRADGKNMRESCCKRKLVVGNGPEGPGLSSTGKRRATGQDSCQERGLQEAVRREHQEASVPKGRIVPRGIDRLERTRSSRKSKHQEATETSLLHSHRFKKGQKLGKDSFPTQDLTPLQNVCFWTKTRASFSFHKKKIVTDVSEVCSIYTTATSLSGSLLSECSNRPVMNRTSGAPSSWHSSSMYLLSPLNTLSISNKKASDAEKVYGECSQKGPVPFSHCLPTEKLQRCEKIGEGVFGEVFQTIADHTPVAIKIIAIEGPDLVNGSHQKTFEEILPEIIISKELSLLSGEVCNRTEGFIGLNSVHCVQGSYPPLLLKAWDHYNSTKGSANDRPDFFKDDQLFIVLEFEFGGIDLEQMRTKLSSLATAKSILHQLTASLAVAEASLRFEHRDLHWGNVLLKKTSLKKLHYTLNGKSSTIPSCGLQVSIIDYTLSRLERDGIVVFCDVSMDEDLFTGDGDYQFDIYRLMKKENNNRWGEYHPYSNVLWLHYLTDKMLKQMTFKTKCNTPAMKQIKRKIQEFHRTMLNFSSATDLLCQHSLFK
Protocol: as §1

NUAK1 (ARK5) = target: T2, NUAK1 (ARK5) (Homo sapiens, UniProt O60285)
T2 sequence (O60285 1-661): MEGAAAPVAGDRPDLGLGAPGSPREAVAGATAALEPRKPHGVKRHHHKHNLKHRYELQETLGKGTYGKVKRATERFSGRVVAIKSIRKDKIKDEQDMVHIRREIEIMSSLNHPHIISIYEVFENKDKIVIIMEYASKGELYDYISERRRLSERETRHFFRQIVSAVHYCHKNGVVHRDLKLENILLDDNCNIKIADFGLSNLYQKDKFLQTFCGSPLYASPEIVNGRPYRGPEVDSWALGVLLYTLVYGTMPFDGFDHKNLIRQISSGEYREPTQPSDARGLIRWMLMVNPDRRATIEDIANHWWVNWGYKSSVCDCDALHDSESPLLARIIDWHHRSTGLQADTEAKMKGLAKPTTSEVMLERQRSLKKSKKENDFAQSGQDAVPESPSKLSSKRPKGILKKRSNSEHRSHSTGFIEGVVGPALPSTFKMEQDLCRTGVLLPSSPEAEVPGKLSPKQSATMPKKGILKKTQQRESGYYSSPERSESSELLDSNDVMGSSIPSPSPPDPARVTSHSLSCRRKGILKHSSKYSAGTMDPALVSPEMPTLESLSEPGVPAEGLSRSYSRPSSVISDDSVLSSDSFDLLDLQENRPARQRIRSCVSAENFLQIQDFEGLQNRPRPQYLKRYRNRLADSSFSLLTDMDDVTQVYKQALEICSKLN
Protocol: as §1

[1] = target: PIK3CA/PIK3R1 (p110 alpha/p85 alpha) (Homo sapiens, UniProt P42336)
Chain of PIK3CA/PIK3R1 (p110 alpha/p85 alpha) (P42336 whole entry): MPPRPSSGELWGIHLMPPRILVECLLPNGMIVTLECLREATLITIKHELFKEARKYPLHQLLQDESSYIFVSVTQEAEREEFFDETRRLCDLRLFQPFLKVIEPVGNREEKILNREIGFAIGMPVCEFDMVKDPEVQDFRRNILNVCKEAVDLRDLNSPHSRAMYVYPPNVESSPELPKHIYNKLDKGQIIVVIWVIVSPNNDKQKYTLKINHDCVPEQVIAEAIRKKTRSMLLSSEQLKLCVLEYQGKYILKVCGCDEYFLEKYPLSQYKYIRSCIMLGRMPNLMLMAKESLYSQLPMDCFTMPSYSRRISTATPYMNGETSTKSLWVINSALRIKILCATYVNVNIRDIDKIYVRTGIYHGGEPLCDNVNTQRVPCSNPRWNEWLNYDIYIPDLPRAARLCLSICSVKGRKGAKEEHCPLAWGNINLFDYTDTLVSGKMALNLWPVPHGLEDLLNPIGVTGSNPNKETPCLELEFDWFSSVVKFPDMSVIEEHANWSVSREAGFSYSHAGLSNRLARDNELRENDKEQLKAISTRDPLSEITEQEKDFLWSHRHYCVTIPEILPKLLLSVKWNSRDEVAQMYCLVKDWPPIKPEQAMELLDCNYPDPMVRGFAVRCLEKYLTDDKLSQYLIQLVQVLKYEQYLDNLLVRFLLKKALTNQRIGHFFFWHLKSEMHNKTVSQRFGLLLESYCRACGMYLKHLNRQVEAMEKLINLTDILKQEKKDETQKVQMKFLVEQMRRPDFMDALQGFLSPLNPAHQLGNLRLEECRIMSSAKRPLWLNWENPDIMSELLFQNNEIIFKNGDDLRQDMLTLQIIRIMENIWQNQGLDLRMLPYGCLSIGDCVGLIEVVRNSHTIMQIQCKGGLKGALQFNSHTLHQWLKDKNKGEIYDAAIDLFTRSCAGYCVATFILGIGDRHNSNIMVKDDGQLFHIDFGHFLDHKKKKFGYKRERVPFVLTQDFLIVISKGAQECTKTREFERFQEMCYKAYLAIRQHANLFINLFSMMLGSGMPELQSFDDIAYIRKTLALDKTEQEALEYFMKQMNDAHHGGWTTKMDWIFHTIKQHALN
Chain of PIK3CA/PIK3R1 (p110 alpha/p85 alpha) (P27986 whole entry partner): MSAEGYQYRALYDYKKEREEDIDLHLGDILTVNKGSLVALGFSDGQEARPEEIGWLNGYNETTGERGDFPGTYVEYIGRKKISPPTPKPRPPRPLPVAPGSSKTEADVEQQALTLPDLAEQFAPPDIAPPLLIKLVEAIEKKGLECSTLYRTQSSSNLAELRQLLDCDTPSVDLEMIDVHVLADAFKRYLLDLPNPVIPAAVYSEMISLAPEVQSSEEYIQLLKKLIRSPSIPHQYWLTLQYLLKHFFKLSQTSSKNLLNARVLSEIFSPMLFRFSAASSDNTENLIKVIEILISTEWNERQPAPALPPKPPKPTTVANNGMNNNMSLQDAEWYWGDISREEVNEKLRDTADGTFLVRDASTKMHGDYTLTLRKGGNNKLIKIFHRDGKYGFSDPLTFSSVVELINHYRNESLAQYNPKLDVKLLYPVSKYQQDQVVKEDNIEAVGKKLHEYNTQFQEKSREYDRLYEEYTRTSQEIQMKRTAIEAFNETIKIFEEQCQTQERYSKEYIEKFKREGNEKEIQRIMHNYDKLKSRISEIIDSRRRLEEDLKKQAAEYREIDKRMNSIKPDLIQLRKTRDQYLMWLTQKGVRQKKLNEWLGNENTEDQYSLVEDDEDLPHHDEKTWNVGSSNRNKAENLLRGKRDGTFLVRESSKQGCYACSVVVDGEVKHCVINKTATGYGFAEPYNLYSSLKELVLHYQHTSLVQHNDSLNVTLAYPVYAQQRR
Protocol: as §1

[2] = target: PIK3CB/PIK3R1 (p110 beta/p85 alpha) (Homo sapiens, UniProt P42338)
Chain of PIK3CB/PIK3R1 (p110 beta/p85 alpha) (P42338 whole entry): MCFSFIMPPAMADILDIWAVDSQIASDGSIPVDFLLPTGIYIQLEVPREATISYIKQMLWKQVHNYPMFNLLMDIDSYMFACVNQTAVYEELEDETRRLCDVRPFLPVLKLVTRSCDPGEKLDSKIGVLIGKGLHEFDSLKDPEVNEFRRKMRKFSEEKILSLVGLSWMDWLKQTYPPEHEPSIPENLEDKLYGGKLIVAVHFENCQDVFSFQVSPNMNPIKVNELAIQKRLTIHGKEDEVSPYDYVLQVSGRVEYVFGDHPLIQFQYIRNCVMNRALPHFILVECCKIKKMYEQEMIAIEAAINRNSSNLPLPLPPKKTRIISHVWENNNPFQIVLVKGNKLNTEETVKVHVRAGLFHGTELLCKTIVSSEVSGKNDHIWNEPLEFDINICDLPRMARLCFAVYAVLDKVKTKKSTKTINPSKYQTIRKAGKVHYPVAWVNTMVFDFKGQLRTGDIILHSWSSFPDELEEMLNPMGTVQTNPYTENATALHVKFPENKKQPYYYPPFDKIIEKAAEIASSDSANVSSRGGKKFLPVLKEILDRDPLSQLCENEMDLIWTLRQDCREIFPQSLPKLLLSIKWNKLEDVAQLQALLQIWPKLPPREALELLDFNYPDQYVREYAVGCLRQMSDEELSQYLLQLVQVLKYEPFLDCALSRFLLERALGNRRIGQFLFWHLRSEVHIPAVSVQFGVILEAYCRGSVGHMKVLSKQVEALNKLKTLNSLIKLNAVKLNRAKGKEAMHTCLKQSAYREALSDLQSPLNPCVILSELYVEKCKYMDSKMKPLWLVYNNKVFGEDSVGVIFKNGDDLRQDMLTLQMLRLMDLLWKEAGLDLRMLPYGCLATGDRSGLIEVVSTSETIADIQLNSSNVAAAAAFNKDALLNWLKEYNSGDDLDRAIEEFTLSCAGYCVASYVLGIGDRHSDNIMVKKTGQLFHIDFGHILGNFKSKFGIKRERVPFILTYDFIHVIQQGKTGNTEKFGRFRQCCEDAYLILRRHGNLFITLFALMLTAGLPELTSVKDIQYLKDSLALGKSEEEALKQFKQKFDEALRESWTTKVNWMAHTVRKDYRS
Chain of PIK3CB/PIK3R1 (p110 beta/p85 alpha) (P27986 whole entry partner): as the sequence (P27986 whole entry partner) above
Protocol: as §1

CCN1CCN(c2ccc(Nc3cc(Nc4cccc5c4N(C(C)=O)CC5)ccn3)cc2)CC1 [Compound 1938]
inhibition at 1 µM (CAMK1 (CaMK1); read-out: % Inhibition Point 1): 26%
inhibition at 1 µM (CAMK1 (CaMK1); read-out: % Inhibition Point 2): 23%
inhibition at 1 µM (CAMK1 (CaMK1); read-out: % Inhibition mean): 25%
inhibition at 1 µM (CDK7/cyclin H/MNAT1; read-out: % Inhibition Point 1): -6.51%
inhibition at 1 µM (CDK7/cyclin H/MNAT1; read-out: % Inhibition Point 2): 4%
inhibition at 1 µM (CDK7/cyclin H/MNAT1; read-out: % Inhibition mean): -1.27%
inhibition at 1 µM (GSG2 (Haspin); read-out: % Inhibition Point 1): -18%
inhibition at 1 µM (GSG2 (Haspin); read-out: % Inhibition Point 2): 2.17%
inhibition at 1 µM (GSG2 (Haspin); read-out: % Inhibition mean): -8%
inhibition at 1 µM (NUAK1 (ARK5); read-out: % Inhibition Point 1): 45%
inhibition at 1 µM (NUAK1 (ARK5); read-out: % Inhibition Point 2): 39%
inhibition at 1 µM (NUAK1 (ARK5); read-out: % Inhibition mean): 42%
inhibition at 1 µM ([1]; read-out: % Inhibition Point 1): -19%
inhibition at 1 µM ([1]; read-out: % Inhibition Point 2): -20%
inhibition at 1 µM ([1]; read-out: % Inhibition mean): -19%
inhibition at 1 µM ([2]; read-out: % Inhibition Point 1): 2.51%
inhibition at 1 µM ([2]; read-out: % Inhibition Point 2): 0.803%
inhibition at 1 µM ([2]; read-out: % Inhibition mean): 1.66%
